The source of these data is patent publication US10077261B2, “Imidazolin-5-one derivative useful as FASN inhibitors for the treatment of cancer” (Janssen Pharmaceutica NV, priority 2012, dated 2018).

This experiment deals with T1, hFASN enzyme (full length) (Homo sapiens, UniProt P49327).
T1 construct: 10 μL hFASN enzyme (full length, 300 ng, purified in house); made in house
The experiment is described as follows: Fatty Acid Synthase (FASN) inhibition scintillation proximity assay. The class given is biochemical. To be noted: for inhibition at 10 µM: read-out: Human FASN % inhibition @ 10 μM, 10 μM test compound; for IC50: read-out: Human FASN pIC50 (converted). The essentials: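 Compounds at 0.01–30 μM were mixed with 300 ng purified full-length enzyme in 100 mM KH2PO4 pH 7.5, 1 mM DTT. Substrates ³H-acetyl-CoA and malonyl-CoA were then converted, and bead addition stopped the reaction. Signal was normalised to low and high plate controls and fitted by 4-parameter nonlinear regression.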

T1 sequence (P49327 whole entry): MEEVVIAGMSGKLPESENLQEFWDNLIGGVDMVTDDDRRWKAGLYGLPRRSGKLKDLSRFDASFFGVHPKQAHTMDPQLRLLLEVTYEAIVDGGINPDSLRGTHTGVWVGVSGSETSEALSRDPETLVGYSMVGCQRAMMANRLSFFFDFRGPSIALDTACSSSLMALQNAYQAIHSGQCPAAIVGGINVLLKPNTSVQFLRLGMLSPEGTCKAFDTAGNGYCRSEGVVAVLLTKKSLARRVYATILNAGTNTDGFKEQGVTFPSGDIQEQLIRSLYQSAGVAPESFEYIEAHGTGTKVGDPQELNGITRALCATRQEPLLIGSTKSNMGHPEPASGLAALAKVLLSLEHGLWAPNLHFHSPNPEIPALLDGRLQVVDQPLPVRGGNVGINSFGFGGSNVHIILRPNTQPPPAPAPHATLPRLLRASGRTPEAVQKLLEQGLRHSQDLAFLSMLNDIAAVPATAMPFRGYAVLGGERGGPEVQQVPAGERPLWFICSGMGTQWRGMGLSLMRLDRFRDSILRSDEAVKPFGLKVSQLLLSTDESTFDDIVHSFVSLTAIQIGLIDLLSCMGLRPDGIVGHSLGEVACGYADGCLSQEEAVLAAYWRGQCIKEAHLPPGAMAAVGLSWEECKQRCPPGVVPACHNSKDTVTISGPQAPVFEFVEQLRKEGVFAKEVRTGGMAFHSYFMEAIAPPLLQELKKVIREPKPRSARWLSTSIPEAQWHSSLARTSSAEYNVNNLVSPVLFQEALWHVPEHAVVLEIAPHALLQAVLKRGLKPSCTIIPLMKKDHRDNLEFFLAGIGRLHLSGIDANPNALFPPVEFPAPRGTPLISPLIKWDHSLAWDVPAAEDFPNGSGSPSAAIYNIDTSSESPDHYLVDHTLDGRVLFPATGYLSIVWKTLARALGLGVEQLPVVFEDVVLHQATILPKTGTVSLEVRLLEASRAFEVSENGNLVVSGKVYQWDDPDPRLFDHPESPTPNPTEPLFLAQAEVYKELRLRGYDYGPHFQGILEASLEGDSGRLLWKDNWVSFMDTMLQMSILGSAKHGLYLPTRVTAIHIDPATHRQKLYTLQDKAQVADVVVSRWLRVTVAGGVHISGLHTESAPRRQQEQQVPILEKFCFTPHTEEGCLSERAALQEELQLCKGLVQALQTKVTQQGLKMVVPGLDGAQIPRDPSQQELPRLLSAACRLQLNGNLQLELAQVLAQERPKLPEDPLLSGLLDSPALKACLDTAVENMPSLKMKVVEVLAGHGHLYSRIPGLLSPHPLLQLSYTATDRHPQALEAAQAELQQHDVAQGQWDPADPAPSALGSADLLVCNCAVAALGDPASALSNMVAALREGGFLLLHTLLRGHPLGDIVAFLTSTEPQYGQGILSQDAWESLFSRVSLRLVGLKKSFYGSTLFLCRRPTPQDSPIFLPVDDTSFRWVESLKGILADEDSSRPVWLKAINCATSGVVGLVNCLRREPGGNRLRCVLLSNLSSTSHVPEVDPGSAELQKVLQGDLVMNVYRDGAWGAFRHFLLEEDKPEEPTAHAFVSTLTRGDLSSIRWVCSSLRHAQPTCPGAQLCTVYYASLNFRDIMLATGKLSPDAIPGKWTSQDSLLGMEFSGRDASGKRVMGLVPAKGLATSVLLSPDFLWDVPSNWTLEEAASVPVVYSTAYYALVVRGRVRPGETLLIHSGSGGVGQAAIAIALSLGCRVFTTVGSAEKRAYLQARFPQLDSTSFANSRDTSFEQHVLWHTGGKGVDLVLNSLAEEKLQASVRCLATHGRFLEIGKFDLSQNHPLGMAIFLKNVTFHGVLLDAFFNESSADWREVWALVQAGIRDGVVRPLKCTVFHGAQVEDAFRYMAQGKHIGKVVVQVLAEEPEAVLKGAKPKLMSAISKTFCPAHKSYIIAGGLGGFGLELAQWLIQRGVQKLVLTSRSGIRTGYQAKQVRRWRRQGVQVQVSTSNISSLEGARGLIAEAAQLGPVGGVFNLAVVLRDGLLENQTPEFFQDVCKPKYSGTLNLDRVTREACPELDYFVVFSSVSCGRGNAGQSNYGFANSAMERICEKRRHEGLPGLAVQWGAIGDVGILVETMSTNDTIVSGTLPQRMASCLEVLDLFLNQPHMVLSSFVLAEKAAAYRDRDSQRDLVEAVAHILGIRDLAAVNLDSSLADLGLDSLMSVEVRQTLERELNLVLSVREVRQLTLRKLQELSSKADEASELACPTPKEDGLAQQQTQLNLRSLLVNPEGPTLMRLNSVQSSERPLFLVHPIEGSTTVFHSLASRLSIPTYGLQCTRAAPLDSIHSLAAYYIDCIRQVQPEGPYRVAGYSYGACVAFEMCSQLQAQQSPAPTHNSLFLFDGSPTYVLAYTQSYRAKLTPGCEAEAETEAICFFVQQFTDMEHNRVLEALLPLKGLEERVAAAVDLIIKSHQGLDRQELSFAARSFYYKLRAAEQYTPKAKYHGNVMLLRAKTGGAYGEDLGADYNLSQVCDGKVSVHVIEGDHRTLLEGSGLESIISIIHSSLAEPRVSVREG

Consider `CC(O)C(=O)N1CC[C@@H](CN2C(=O)C3(CCOCC3)N=C2c2ccc(-c3ccc(-c4cnn(C)c4)cc3)cc2)C1` (stereo partly drawn) [compound 656, 3-{[(3R)-1-(2-Hydroxypropanoyl)pyrrolidin-3-yl]methyl}-2-[4′-(1-methyl-1H-pyrazol-4-yl)biphenyl-4-yl]-8-oxa-1,3-diazaspiro[4.5]dec-1-en-4-one], for which the inhibition at 10 µM was determined as 74% and the IC50 was 2 µM.
Regarding `COC(=O)N1CC[C@@H](CN2C(=O)C3(CCOCC3)N=C2c2ccc(-c3ccc(-c4cnn(C)c4)cc3)cc2)C1` [compound 658, Methyl (3S)-3-({2-[4′-(1-methyl-1H-pyrazol-4-yl)biphenyl-4-yl]-4-oxo-8-oxa-1,3-diazaspiro[4.5]dec-1-en-3-yl}methyl)pyrrolidin-1-carboxlate], the inhibition at 10 µM amounted to 52% and the IC50 was 8.71 µM.
For `Cn1cc(-c2ccc(-c3ccc(C4=NC5(CCOCC5)C(=O)N4C[C@@H]4CCN(C(=O)C(F)(F)F)C4)cc3)cc2)cn1` [compound 659, 2-[4′-(1-Methyl-1H-pyrazol-4-yl)biphenyl-4-yl]-3-{[(3R)-1-(trifluoroacetyl)pyrrolidin-3-yl]methyl}-8-oxa-1,3-diazaspiro[4.5]dec-1-en-4-one] the same measures were 38% and about 8.32 µM.
`Cn1cc(-c2ccc(-c3ccc(C4=NC5(CCOCC5)C(=O)N4C[C@@H]4CCN(C(=O)N5CCCC5)C4)cc3)cc2)cn1` [compound 660, 2-[4′-(1-Methyl-1H-pyrazol-4-yl)biphenyl-4-yl]-3-{[(3S)-1-(pyrrolidin-1-ylcarbonyl)pyrrolidin-3-yl]methyl}-8-oxa-1,3-diazaspiro[4.5]dec-1-en-4-one]: the inhibition at 10 µM is 76% and the IC50 is 2.24 µM.
For `O=C(c1nccs1)N1CC[C@@H](CN2C(=O)C3(CCOCC3)N=C2c2ccc(-c3ccc4cccnc4c3)cc2)C1` [compound 666, 2-(4-Quinolin-7-ylphenyl)-3-{[(3R)-1-(1,3-thiazol-2-ylcarbonyl)pyrrolidin-3-yl]methyl}-8-oxa-1,3-diazaspiro[4.5]dec-1-en-4-one] the same measures were 62% and about 5.01 µM.
For `CC(O)C(=O)N1CC[C@@H](CN2C(=O)C3(CCOCC3)N=C2c2ccc(-c3ccc4occc4c3)cc2)C1` (stereo partly drawn) [compound 668, 2-[4-(1-Benzofuran-5-yl)phenyl]-3-{[(3R)-1-(2-hydroxypropanoyl)pyrrolidin-3-yl]methyl}-8-oxa-1,3-diazaspiro[4.5]dec-1-en-4-one] the same measures were 86% and 1.17 µM.
In the same order, the values of `O=C(N1CC[C@@H](CN2C(=O)C3(CCOCC3)N=C2c2ccc(-c3ccc4occc4c3)cc2)C1)C(F)(F)F` [compound 670, 2-[4-(1-Benzofuran-5-yl)phenyl]-3-{[(3R)-1-(trifluoroacetyl)pyrrolidin-3-yl]methyl}-8-oxa-1,3-diazaspiro[4.5]dec-1-en-4-one] are 56% and about 7.59 µM.
`O=C(N1CCCC1)N1CC[C@@H](CN2C(=O)C3(CCOCC3)N=C2c2ccc(-c3ccc4occc4c3)cc2)C1` [compound 671, 2-[4-(1-Benzofuran-5-yl)phenyl]-3-{[(3S)-1-(pyrrolidin-1-ylcarbonyl)pyrrolidin-3-yl]methyl}-8-oxa-1,3-diazaspiro[4.5]dec-1-en-4-one]: the inhibition at 10 µM was 76% and the IC50 is 1.66 µM.
Take `CC(O)C(=O)N1CC[C@@H](CN2C(=O)C3(CCOCC3)N=C2c2ccc(-c3ccc4c(cnn4C)c3)cc2)C1` (stereo partly drawn) [compound 673, 3-{[(3R)-1-(2-Hycdroxypropanoyl)pyrrolidin-3-yl]methyl}-2-[4-(1-methyl-1H-indazol-5-yl)phenyl]-8-oxa-1,3-diazaspiro[4.5]dec-1-en-4-one]: the inhibition at 10 µM is 61% and the IC50 is 5.5 µM.
`Cn1ncc2cc(-c3ccc(C4=NC5(CCOCC5)C(=O)N4C[C@@H]4CCN(C(=O)N5CCCC5)C4)cc3)ccc21` [compound 675]: the inhibition at 10 µM amounted to 66% and the IC50 is 2.82 µM.
In the same order, the values of `CC(O)C(=O)N1CC[C@@H](CN2C(=O)C3(CCOC3)N=C2c2ccc(-c3ccc(-c4cnn(C)c4)cc3)cc2)C1` (stereo partly drawn) [compound 677, 3-{[(3R)-1-(2-Hydroxypropanoyl)pyrrolidin-3-yl]methyl}-2-[4′-(1-methyl-1H-pyrazol-4-yl)biphenyl-4-yl]-7-oxa-1,3-diazaspiro[4.4]non-1-en-4-one] are 63% and about 7.08 µM.
In the same order, the values of `Cn1cc(-c2ccc(-c3ccc(C4=NC5(CCOC5)C(=O)N4C[C@@H]4CCN(C(=O)N5CCCC5)C4)cc3)cc2)cn1` (stereo partly drawn) [compound 679, 2-[4′-(1-Methyl-1H-pyrazol-4-yl)biphenyl-4-yl]-3-{[(3S)-1-(pyrrolidin-1-ylcarbonyl)pyrrolidin-3-yl]methyl}-7-oxa-1,3-diazaspiro[4.4]non-1-en-4-one] are 57% and about 6.17 µM.
For `O=C(N1CC[C@@H](CN2C(=O)C3(CCOC3)N=C2c2ccc(-c3ccc4cccnc4c3)cc2)C1)C(F)(F)F` (stereo partly drawn) [compound 684, 2-(4-Quinolin-7-ylphenyl)-3-{[(3R)-1-(trifluoroacetyl)pyrrolidin-3-yl]methyl}-7-oxa-1,3-diazaspiro[4.4]non-1-en-4-one], the inhibition at 10 µM came out at 61% and the IC50 is 4.27 µM.
In the same order, the values of `CC(O)C(=O)N1CC[C@@H](CN2C(=O)C3(CCOC3)N=C2c2ccc(-c3ccc4occc4c3)cc2)C1` (stereo partly drawn) [compound 687, 2-[4-(1-Benzofuran-5-yl)phenyl]-3-{[(3R)-1-(2-hydroxypropanoyl)pyrrolidin-3-yl]methyl}-7-oxa-1,3-diazaspiro[4.4]non-1-en-4-one] are 73% and 2.88 µM.
With `O=C(N1CCCC1)N1CC[C@@H](CN2C(=O)C3(CCOC3)N=C2c2ccc(-c3ccc4occc4c3)cc2)C1` (stereo partly drawn) [compound 689, 2-[4-(1-Benzofuran-5-yl)phenyl]-3-{[(3S)-1-(pyrrolidin-1-ylcarbonyl)pyrrolidin-3-yl]methyl}-7-oxa-1,3-diazaspiro[4.4]non-1-en-4-one], the inhibition at 10 µM is 61% and the IC50 was 4.07 µM.
For `CC(O)C(=O)N1CC[C@@H](CN2C(=O)C3(CCOC3)N=C2c2ccc(-c3ccc4c(cnn4C)c3)cc2)C1` (stereo partly drawn) [compound 691, 3-{[(3R)-1-(2-Hydroxypropanoyl)pyrrolidin-3-yl]methyl}-2-[4-(1-methyl-1H-indazol-5-yl)phenyl]-7-oxa-1,3-diazaspiro[4.4]non-1-en-4-one] the same measures were 63% and about 7.41 µM.
Consider `Cn1ncc2cc(-c3ccc(C4=NC5(CCOC5)C(=O)N4C[C@@H]4CCN(C(=O)N5CCCC5)C4)cc3)ccc21` (stereo partly drawn) [compound 693, 2-[4-(1-Methyl-1H-indazol-5-yl)phenyl]-3-{[(3S)-1-(pyrrolidin-1-ylcarbonyl)pyrrolidin-3-yl]methyl}-7-oxa-1,3-diazaspiro[4.4]non-1-en-4-one], for which the inhibition at 10 µM was 48% and the IC50 is 9.77 µM.
As for `Cn1cc(-c2ccc(-c3ccc(C4=NC5(CCOCC5)C(=O)N4CC4CN(C(=O)C5CC5)C4)cc3)cc2)cn1` [compound 694, 3-{[1-(Cyclopropylcarbonyl)azetidin-3-yl]methyl}-2-[4-(1-methyl-1H-pyrazol-4-yl)biphenyl-4-yl]-8-oxa-1,3-diazaspiro[4.5]dec-1-en-4-one], the inhibition at 10 µM amounted to 69% and the IC50 is 2.45 µM.
In the same order, the values of `CC(O)C(=O)N1CC(CN2C(=O)C3(CCOCC3)N=C2c2ccc(-c3ccc(-c4cnn(C)c4)cc3)cc2)C1` (stereo not drawn) [compound 695, 3-{[1-(2-Hydroxypropanoyl)azetidin-3-yl]methyl}-2-[4′-(1-methyl-1H-pyrazol-4-yl)biphenyl-4-yl]-8-oxa-1,3-diazaspiro[4.5]dec-1-en-4-one] are 43% and 5.89 µM.
In the same order, the values of `Cn1cc(-c2ccc(-c3ccc(C4=NC5(CCOCC5)C(=O)N4CC4CN(C(=O)[C@H]5CCCO5)C4)cc3)cc2)cn1` [compound 696, 2-[4′-(1-Mehtyl-1H-pyrazol-4-yl)biphenyl-4-yl]-3-({1-[(2R)-tetrahydro-furan-2-ylcarbonyl]azetidin-3-yl}methyl)-8-oxa-1,3-diazaspiro[4.5]dec-1-en-4-one] are 72% and 1.7 µM.
In the same order, the values of `Cn1cc(-c2ccc(-c3ccc(C4=NC5(CCOCC5)C(=O)N4CC4CN(C(=O)N5CCCC5)C4)cc3)cc2)cn1` [compound 697, 2-[4′-(1-Methyl-1H-pyrazol-4-yl)biphenyl-4-yl]-3-{[1-(pyrrolidin-1-ylcarbonyl)azetidin-3-yl]methyl}-8-oxa-1,3-diazaspiro[4.5]dec-1-en-4-one] are 58% and 5.89 µM.
Regarding `O=C(C1CC1)N1CC(CN2C(=O)C3(CCOCC3)N=C2c2ccc(-c3ccc4occc4c3)cc2)C1` [compound 702, 2-[4-(1-Benzofuran-5-yl)phenyl]-3-{[1-(cyclopropylcarbonyl)azetidin-3-yl]methyl}-8-oxa-1,3-diazaspiro[4.5]dec-1-en-4-one], the inhibition at 10 µM is 75% and the IC50 is about 2.63 µM.
For `CC(O)C(=O)N1CC(CN2C(=O)C3(CCOCC3)N=C2c2ccc(-c3ccc4occc4c3)cc2)C1` (stereo not drawn) [compound 703, 2-[4-(1-Benzofuran-5-yl)phenyl]-3-{[1-(2-hydroxypropanoyl)azetidin-3-yl]methyl}-8-oxa-1,3-diazaspiro[4.5]dec-1-en-4-one] the same measures were 61% and 4.47 µM.
In the same order, the values of `O=C(N1CCCC1)N1CC(CN2C(=O)C3(CCOCC3)N=C2c2ccc(-c3ccc4occc4c3)cc2)C1` [compound 705, 2-[4-(1-Benzofuran-5-yl)phenyl]-3-{[1-(pyrrolidin-1-ylcarbonyl)azetidin-3-yl]methyl}-8-oxa-1,3-diazaspiro[4.5]dec-1-en-4-one] are 71% and 2.69 µM.
